Calls of active or inactive are those of the source. The rule behind the calls is not given here.

In series [1] the test system is MDA-MB-468. Briefly: […] DNA repair in human MDA-MB-468 cells assessed as decrease in RAD51 level at 10 uM incubated for 24 hrs by confocal laser scanning microscopic analysis. Type of series: functional, cell-based.
In series [2] the test system is MDA-MB-468. Briefly: […] DNA repair in human MDA-MB-468 cells assessed as […] formation at 10 uM incubated for 24 hrs by confocal laser scanning microscopic analysis. The format is functional, cell-based.
Series [3] deals with MDA-MB-231. The series can be described thus: Induction of apoptosis in human MDA-MB-231 cells incubated for 24 hrs by Annexin V/PI staining based flow cytometry analysis. The format is functional, cell-based. Conditions: dose 5-20 µM.
The nature of series [4]: Metabolic stability in BALB/c mouse liver microsome assessed as intrinsic clearance in presence of NADPH incubated upto 60 mins by LC-MS/MS analysis. Type of series: ADME. The following applies: liver microsomes, read-out: CLH.
The target in series [5] is Cyclin-dependent kinase 12 (Homo sapiens, UniProt Q9NYV4). The series can be described thus: Inhibition of CDK12 (unknown origin) at 1 uM in presence of ATP by kinase-glo plus luminescent assay relative to control.
The next series relates to MDA-MB-436. The series can be described thus: Induction of cell cycle arrest in human MDA-MB-436 cells assessed as accumulation of cells at G1 phase at 10 uM measured after 24 hrs by PI staining based cytometry analysis (reference value: 72.04%). Type of series: functional.
Series [6] is described as follows: Cmax in Sprague-Dawley rat at 1 mg/kg, iv measured upto 24 hrs by LC-MS/MS analysis. The format is ADME, organism-based. Conditions: in vivo.
The nature of series [7]: Toxicity in BALB/c mouse xenografted with human MDA-MB-231 cells assessed as morphological changes in spleen at 20 to 80 mg/kg, ip administered once daily for 16 days by H and E staining based analysis. The following applies: in vivo, 384 h, dose 20-80 mg/kg, time 16 day. The format is organism-based.
The nature of series [8]: AUC (0 to infinity) in Sprague-Dawley rat at 1 mg/kg, iv measured upto 24 hrs by LC-MS/MS analysis. Type of series: ADME, organism-based. The following applies: in vivo.
Series [9] relates to MDA-MB-231. Briefly: Antiproliferative activity against human MDA-MB-231 cells assessed as inhibition of cell growth incubated for 24 hrs by MTT assay. Type of series: functional, cell-based. Conditions: MDA-MB-231, 24 h. On the technique in general: Tetrazolium assays rely on reduction of a dye to a coloured formazan, in cell work by metabolically active cells.
Series [10] can be described thus: Tmax in Sprague-Dawley rat at 1 mg/kg, iv measured upto 24 hrs by LC-MS/MS analysis. The format is ADME, organism-based. The following applies: in vivo.
Series [11] has as its system MDA-MB-231. Briefly: Antiproliferative activity against human MDA-MB-231 cells transfected with CDK12 M816A and PARP1 G863A mutant incubated for 24 hrs by MTT assay. Type of series: functional, cell-based.
Series [12] concerns the target Cyclin-dependent kinase 2 (Homo sapiens, UniProt P24941). Briefly: Inhibition of CDK2 (unknown origin).
Series [13] deals with MDA-MB-468. Briefly: Induction of apoptosis in human MDA-MB-468 cells assessed as upregulation of Bax expression incubated for 24 hrs. The format is functional, cell-based. Conditions: dose 5-20 µM.
Another series relates to Mus musculus. Briefly: In-vivo induction of DNA damage in ip dosed BALB/c mouse assessed as upregulation of gamma-H2AX level in tumor administered once daily for 16 days by Western blot analysis. The format is functional, organism-based. The following applies: dose 20-80 mg/kg, time 16.0 day. On the technique in general: A western blot detects proteins with antibodies after separation by electrophoresis.

The target of series [14] is Poly [ADP-ribose] polymerase 1 (Homo sapiens, UniProt P09874). Briefly: Binding affinity to PARP1 in human MDA-MB-231 cells assessed as increase in protein thermal stabilization at 10 uM incubated for 6 hrs by CETSA based Western blot analysis. Type of series: cell-based.
Poly [ADP-ribose] polymerase 1, sequence (P09874 whole entry): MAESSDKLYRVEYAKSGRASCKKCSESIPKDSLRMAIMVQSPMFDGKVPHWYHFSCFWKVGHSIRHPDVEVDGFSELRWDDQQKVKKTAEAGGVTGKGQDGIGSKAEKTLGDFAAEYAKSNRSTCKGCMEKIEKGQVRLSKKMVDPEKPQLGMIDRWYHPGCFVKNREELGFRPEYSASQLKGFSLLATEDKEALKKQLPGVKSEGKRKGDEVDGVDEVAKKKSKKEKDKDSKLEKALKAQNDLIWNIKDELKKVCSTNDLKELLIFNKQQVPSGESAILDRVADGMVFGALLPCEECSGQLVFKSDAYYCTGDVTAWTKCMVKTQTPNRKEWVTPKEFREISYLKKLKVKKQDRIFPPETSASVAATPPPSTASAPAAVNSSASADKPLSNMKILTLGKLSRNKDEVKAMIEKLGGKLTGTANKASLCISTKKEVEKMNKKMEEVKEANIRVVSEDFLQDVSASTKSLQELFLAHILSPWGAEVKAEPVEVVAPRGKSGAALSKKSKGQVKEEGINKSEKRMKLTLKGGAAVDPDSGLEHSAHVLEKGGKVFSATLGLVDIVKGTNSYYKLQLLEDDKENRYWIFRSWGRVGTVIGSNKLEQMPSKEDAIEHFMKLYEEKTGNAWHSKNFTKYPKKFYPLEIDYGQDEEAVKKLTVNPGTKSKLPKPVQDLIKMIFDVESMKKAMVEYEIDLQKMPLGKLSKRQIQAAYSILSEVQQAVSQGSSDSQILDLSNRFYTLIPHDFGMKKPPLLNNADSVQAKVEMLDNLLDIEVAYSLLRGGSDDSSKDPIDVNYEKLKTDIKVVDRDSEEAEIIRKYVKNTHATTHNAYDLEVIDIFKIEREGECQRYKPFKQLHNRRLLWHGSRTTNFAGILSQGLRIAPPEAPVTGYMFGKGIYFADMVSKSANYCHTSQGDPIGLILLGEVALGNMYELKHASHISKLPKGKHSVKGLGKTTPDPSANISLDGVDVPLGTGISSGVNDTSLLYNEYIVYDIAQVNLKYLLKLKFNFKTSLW

Cyclin-dependent kinase 12, sequence (Q9NYV4 whole entry, looked up): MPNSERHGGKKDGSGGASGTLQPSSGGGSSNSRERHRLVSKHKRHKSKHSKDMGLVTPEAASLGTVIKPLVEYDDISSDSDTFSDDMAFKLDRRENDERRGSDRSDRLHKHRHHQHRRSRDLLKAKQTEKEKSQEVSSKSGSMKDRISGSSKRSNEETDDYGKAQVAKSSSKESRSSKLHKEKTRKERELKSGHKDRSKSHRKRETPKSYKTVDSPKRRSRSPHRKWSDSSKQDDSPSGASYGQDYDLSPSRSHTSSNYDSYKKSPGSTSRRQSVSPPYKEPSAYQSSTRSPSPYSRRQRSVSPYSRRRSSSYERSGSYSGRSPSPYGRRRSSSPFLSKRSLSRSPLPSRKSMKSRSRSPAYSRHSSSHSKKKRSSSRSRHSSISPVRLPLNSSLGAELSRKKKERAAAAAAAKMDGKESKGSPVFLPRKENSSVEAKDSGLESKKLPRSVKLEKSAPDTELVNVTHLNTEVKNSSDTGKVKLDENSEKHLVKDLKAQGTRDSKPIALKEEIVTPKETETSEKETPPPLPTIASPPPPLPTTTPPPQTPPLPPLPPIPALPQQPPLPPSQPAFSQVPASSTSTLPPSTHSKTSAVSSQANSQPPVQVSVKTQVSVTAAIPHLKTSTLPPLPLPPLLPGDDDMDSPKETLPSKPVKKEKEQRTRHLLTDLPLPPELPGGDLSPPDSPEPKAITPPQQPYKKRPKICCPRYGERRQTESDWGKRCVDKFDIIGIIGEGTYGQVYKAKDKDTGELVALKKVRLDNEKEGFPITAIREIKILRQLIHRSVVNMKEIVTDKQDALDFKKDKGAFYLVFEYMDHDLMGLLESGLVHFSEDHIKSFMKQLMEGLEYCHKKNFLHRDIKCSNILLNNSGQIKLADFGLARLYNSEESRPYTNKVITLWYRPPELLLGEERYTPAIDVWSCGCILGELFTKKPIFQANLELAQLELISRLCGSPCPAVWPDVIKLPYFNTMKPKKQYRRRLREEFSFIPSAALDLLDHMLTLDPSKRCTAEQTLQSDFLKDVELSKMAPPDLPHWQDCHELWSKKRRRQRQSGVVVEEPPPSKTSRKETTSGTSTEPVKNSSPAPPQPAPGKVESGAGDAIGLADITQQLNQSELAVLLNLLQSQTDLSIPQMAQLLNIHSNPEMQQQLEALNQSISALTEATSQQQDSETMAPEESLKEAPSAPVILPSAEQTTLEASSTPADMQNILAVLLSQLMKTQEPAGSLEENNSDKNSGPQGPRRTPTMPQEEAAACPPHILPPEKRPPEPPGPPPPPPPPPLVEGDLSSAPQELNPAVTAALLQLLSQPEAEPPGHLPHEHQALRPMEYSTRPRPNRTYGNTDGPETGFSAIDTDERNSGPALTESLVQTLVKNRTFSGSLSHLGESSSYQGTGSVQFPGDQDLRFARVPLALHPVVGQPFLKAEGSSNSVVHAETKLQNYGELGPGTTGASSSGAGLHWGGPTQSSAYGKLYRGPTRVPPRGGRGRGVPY

With `NC(=O)c1cccc2[nH]c(NC(=O)c3cccc(C(=O)N4CCC(Nc5ncc(I)cn5)CC4)c3)nc12`, the outcome (with MDA-MB-468 [1]; with MDA-MB-468 [2]; in the series with MDA-MB-231 [11]; with Mus musculus; in [14]) was Active. The Activity entry was “Dose-Dependent Effect” in the series on MDA-MB-231 [3], 66.94% with MDA-MB-436, “Non-Toxic” in [7] and “Dose-Dependent Effect” with MDA-MB-468 [13]. Also, in series [4], the CLint scaled amounted to 48.5 mL/min/kg. Moreover, in series [5], the inhibition was 77.3%. The Cmax in series [6] came out at 2130 ng/mL. Also, the AUC(0-inf) in series [8] was 1340 ng·h/mL. For the same compound, the IC50 came out at 8.5 µM in the series with MDA-MB-231 [9] and 0.689 µM in series [12]. Further, the Tmax in series [10] came out at 4.8 min.

Broadly, the inhibition is the drop in the measured response relative to a control, in per cent. Usually Cmax stands for the peak of the concentration-time curve. One may read the AUC(0-inf) as total exposure, with the tail of the curve extrapolated. Lower therefore signals low exposure. Broadly, the IC50 is the concentration that inhibits the measured activity by half. In general, Tmax refers to the time at which the peak concentration occurs.

The values are drawn from ChEMBL document CHEMBL5625183, “Discovery of a novel dual-target inhibitor of CDK12 and PARP1 that induces synthetic lethality for treatment of triple-negative breast cancer” (Eur J Med Chem, 2023).
